From US20030190370A1, “Antibacterial agents, and antibacterial and deodorizing solution comprising the same” (priority 2000, published 2003)

How the values were obtained:
[1] = Investigation of discoloration resistance (UV exposure, judged by eye); format: physicochemical; conditions: in tap water, complexes diluted to 2% (10-40 ppm silver ion), silver compounds 40 ppm, UV 2 hr
[2] = tested on: Staphylococcus aureus ATCC 25923; experiment: Minimum growth inhibition concentration, test-tube dilution method; format: cell-based
Procedure: (§1) The minimum growth inhibition concentration was measured using test-tube dilution method in order to evaluate the antibacterial activity of the silver complexes obtained in Examples 1-5.

[3] = tested on: Trichophyton rubrum ATCC 28188; experiment: as above; format: cell-based
Procedure: as §1

[4] = tested on: Yeast (Trentopholia odorata); experiment: as above; format: cell-based
Procedure: as §1

[5] = tested on: E. coli (Escherichia coli ATCC 25922); experiment: as above; format: cell-based; conditions: E. coli ATCC 25922
Procedure: as §1

[6] = tested on: (Candida Albicans ATCC 11651); experiment: as above; format: cell-based
Procedure: as §1

[7] = tested on: E. coli O-157 (Escherichia coli ATCC 43895); experiment: as above; format: cell-based; conditions: E. coli O-157 ATCC 43895
Procedure: as §1

[8] = tested on: Staphylococcus aureus ATCC 6538P; experiment: as above; format: cell-based
Procedure: as §1

Row | Compound | Discoloration [1] | Minimum Growth Inhibition Concentration [2] [ppm] | Minimum Growth Inhibition Concentration [3] [ppm] | Minimum Growth Inhibition Concentration [4] [ppm] | Minimum Growth Inhibition Concentration [5] [ppm] | Minimum Growth Inhibition Concentration [6] [ppm] | Minimum Growth Inhibition Concentration [7] [ppm] | Minimum Growth Inhibition Concentration [8] [ppm]
1 | O=C([O-])c1ccccc1.[Ag+] [Silver benzoate solution, silver beiizoate, reference compound] | 1 |  |  |  |  |  |  | 
2 | O=[N+]([O-])[O-].[Ag+] [Silver nitrate solution, silver nitrate, reference compound] | 1 |  |  |  |  |  |  | 
3 | Silver-diethanolamine Complex [Example 5] | 3 | 6 | 2 | <1 | 1 | 1 | 3 | 7
4 | Silver-triethanolamine Complex [Example 4] | 3 | 5 | 2 | <1 | 1 | 1 | 3 | 5
